Test results taken from patent publication US20230322715A1, “BROAD SPECTRUM ANTI-CANCER COMPOUNDS” (The Regents of the University of California, priority 2019, published 2023).
Entries after “also recorded” stand apart in the source; their conditions may differ.

Legend:
[1] = system: GBM-GSC-23 glioblastoma stem cells; experiment: Neurosphere (tumorosphere) formation assay, GBM-GSC-23; type: cell-based, human; settings: GSC-23, 20 μM, 2 days
FTO [2] = molecular target: T1, FTO (Homo sapiens (Human), UniProt Q9C0B1); experiment: Steady-state (Michaelis-Menten) inhibition kinetics of FTO; type: biochemical; settings: velocity and double reciprocal plots, 0-40 μM inhibitor, substrate 0-10 μM
[3] = system: TS576 glioblastoma stem cells; experiment: Neurosphere (tumorosphere) formation assay, TS576; type: cell-based, human; settings: 2 days
Method: To understand the effects of our FTO inhibitors on the self-renewal properties of GSCs, tumorospheres cultured from the patient-derived GSC line TS576 were treated with 30 μM of FTO-04, FTO-10, FTO-11, or FTO-12 (FIG. 4-3AB; cell line gifted from the Furnari lab)^0.45, 46 The GSCs were cultured in sphere-forming assays for 24 hours, then treated with either inhibitors or DMSO control for 2 days. The size of the tumorospheres was calculated using ImageJ.
Early passaged GSCs were used to understand the efficacy of ALK-04 on the self-renewal capacity of GSCs by tumorsphere-formation assay as described earlier^10, 11. In brief, GSCs were seeded at 4×10^4 cells in 24 well plate and cultured for 3 days followed by treatment with ALK-04 inhibitors at 20 μM daily for 3 days. After 3 days of treatment the images of the tumorospheres were imaged with phase contrast microscope and size was measured with Image J, to understand the effects of drugs on the self-renewal of GSCs on sphere formation. This process was also repeated for healthy neural stem cells (hNSCs) treated daily with 20 μM ALK-04 for three days to assess the therapeutic ratio.

[4] = system: human neural stem cells (hNSC); experiment: Neurosphere formation assay, healthy neural stem cells; type: cell-based; settings: 20 μM, 2 days
FTO [5] = molecular target: T1, FTO; experiment: ELISA-based FTO inhibition assay (orthogonal control); type: biochemical; settings: biotinylated m6A-RNA, 0-40 μM inhibitor; read-out: IC50 against FTO by ELISA assay
Method: The reaction mixture was then incubated with neutravidin coated 96-well plates overnight at 4° C., washed and blocked, incubated with m^6 A-specific antibody for 1 hour at room temperature, washed and blocked, and incubated with horseradish peroxidase-conjugated secondary antibody for 1 hour at room temperature. After extensive washing, the wells were treated with 3,3′,5,5′-tetramethylbenzidine (TMB) for 30 minutes at room temperature and the absorbance was measured at 390 nm. Absorbance was normalized to control wells for each concentration of inhibitor without cofactor 2-oxoglutarate to control for non-specific antibody binding, and the data were fit to a sigmoidal dose-response curve in GraphPad Prism 6.
The reaction mixture was then incubated with neutravidin coated 96-well plates (Pierce) overnight at 4° C., washed and blocked, incubated with m6A -specific primary antibody (Abcam ab151230, 1:400 dilution) for 1 hour at room temperature, washed and blocked (phosphate buffer saline with 0.1% tween-20 (PBST); blocked in 5% of non-fat milk in PBST buffer), and incubated with horseradish peroxidase-conjugated secondary antibody (Sigma-Aldrich, A6154, 1:5000 dilution) for 1 hour at room temperature. […]

FTO [6] = molecular target: T1, FTO; experiment: Fluorescence enzymatic inhibition assay (m6A7-Broccoli RNA / DFHBI-1T) against FTO; type: biochemical; settings: IC50 compared with MA (12.5)
Method in brief: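 m6A7-Broccoli RNA demethylated by FTO with 300 μM 2-oxoglutarate, 300 μM Fe(II), 2 mM ascorbate in 50 mM NaHEPES pH 6, 2 h at room temperature; inhibitors 0.008-40 μM, 0.2% DMSO. DFHBI-1T fluorescence after 16 h at 4 °C; sigmoidal dose-response fits, triplicate.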

[7] = system: m6A mRNA levels in TS576 cells; experiment: m6A dot blot assay on poly(A)+ mRNA; type: cell-based, human; settings: TS576 poly(A)+ mRNA, 2, 10, 50 ng, vs DMSO or shControl
Method: Next, we sought to determine if FTO-04 was able to alter m6A levels in purified mRNA from GSCs by m6A dot blot assay. TS576 cells were treated with 2, 10, and 50 ng shControl or shFTO to establish the relative change in m6A mRNA levels due to FTO knockdown. […] TS576 cells were then treated with 2, 10, and 50 ng of either DMSO or FTO-04 (FIG. 4-33B).
Polyadenylated mRNA were isolated from TS576 cells treated with either DMSO, FTO-04 (30 μM), and control (shControl) or FTO lentivirus (shFTO) knockdown samples by using Magnetic mRNA Isolation Kit (New England Biolabs, S1550S). Isolated mRNA was quantified, serially diluted and denatured at 95° C. for 3 min, then chilled on ice to prevent reformation of secondary structure of mRNA. Denatured mRNA samples were spotted on an Amersham Hybond-N^+ membrane (GE Healthcare, RPN3050B) and cross-linked to the membrane with UV radiation. After crosslinking the membrane was washed with phosphate buffer saline with 0.1% tween-20 (PBST) and blocked in 5% of non-fat milk in PBST buffer, and then incubated with anti-m^6 A antibody (1:1000; abcam) overnight at 4° C. The membrane was then washed as before and incubated in HRP-conjugated secondary antibodies for 1 h at room temperature. The membrane was then developed with Thermo ECL SuperSignal West Femto Maximum Sensitivity Substrate (Thermo Fisher Scientific).

[8] = system: GBM-6 glioblastoma stem cells; experiment: Neurosphere (tumorosphere) formation assay, GBM-6; type: cell-based, human; settings: GBM-6, 20 μM, 2 days

T1 sequence (Q9C0B1 whole entry): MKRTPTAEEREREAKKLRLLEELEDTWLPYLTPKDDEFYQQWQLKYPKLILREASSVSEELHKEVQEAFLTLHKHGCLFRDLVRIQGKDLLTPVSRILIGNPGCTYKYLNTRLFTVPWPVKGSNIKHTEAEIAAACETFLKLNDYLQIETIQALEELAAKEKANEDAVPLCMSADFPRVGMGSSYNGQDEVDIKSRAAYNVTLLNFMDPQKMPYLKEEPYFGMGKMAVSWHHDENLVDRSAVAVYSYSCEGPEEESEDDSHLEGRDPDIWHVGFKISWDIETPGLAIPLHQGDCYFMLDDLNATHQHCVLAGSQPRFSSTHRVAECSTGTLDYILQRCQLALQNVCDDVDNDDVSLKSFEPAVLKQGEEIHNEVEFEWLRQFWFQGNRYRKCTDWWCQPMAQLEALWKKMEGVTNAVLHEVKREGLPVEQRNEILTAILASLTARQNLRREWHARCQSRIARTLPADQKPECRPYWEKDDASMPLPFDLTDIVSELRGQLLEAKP

In the case of `COc1ncc(-c2ccc3nc(N)sc3c2)cn1` [FTO-04], the size of tumorospheres [1] is reported as “significantly decrease the size of tumorospheres”, the “mechanism of inhibition of FTO” value (FTO [2]) is reported as “competitive inhibitor; also recorded: competitive mechanism of inhibition” and the size of tumorospheres ([3]; TS576, 20 μM) is reported as “significantly decrease the size of tumorospheres”. For the same molecule, the size of tumorospheres ([3]; TS576, 30 μM inhibitor, vs vehicle control) was “significant reduction in size of the tumorospheres”, the “neurosphere size / formation” value [4] was “without impairing hNSC neurosphere growth; also recorded: no alteration in neurosphere size; also recorded: without significantly altering hNSC neurosphere formation” and the IC50 (FTO [5]) was 2790 ± 1300 nM. For the same molecule, the “potency against FTO relative to MA (fold)” value (FTO [6]) was “approximately 4”, the “m6A mRNA levels (dot blot)” value [7] was “increase m6A mRNA levels significantly; also recorded: increases m6A mRNA levels” and the size of tumorospheres [8] was “significantly decrease the size of tumorospheres”.
